Results: publication PMC6292510 (Molecular pharmaceutics, 2017)
Like-named read-outs stand apart in the source and are kept apart here.

Legend:
[1] = tested on: neonatal rat ventricular cardiomyocytes (NRVCMs); assay: MTT viability assay of neonatal rat ventricular cardiomyocytes; format: cell-based; conditions: 0, 50, 100 and 200 µM; 24 or 48 h of analog exposure
[2] = tested on: neonatal rat ventricular cardiomyocytes (NRVCMs); assay: LIVE/DEAD assay of neonatal rat ventricular cardiomyocytes; format: cell-based; conditions: 50 μM; 12, 24 and 48 h; apparent beginning 12 to 24 h
[3] = target: human Ether-a-go-go-Related Gene (hERG) potassium channel (Homo sapiens, UniProt Q12809); assay: Predictor hERG Fluorescence Polarization Assay; format: binding
[4] = Chromatographic hydrophobicity indexing; format: physicochemical; conditions: C18 RP-HPLC, rank among the test compounds
[5] = target: cytochrome P450 3A4 (CYP3A4) (Homo sapiens, UniProt P08684); assay: P450-Glo CYP3A4; format: in vitro ADME; conditions: 400 μM (parent hexosamines)
[6] = read-out: hERG inhibition, concentration range, Fig. 8B & C

Chain of human Ether-a-go-go-Related Gene (hERG) potassium channel (Q12809 whole entry): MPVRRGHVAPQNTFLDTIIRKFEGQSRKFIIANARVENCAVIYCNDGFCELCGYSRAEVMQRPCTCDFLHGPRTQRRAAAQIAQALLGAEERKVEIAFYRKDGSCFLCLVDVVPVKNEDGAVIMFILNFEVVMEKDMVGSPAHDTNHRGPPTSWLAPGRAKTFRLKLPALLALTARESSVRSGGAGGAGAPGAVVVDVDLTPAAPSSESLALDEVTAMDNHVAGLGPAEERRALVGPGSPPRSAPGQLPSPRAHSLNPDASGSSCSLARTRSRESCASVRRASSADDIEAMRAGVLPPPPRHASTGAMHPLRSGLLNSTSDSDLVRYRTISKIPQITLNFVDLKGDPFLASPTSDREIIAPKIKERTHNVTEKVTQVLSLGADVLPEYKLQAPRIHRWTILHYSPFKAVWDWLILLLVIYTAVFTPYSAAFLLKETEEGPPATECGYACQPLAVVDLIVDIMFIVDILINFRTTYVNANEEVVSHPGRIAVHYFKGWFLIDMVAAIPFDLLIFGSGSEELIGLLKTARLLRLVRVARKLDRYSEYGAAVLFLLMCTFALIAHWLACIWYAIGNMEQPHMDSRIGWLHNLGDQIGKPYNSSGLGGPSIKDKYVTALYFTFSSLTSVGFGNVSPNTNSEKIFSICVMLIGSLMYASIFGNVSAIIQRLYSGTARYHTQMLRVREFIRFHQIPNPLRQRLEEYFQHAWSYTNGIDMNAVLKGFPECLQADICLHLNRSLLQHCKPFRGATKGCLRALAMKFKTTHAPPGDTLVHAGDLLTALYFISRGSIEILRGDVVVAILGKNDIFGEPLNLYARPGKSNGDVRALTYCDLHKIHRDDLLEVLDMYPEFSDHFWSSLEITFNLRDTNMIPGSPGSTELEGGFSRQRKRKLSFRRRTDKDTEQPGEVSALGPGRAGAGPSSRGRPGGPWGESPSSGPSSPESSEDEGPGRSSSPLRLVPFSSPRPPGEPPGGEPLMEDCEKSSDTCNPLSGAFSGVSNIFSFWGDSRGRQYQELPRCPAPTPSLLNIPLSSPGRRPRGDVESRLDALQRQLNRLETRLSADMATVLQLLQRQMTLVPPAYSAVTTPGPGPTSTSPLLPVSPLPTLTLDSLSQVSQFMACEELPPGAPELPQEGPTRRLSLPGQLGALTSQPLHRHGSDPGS
Chain of cytochrome P450 3A4 (CYP3A4) (P08684 whole entry): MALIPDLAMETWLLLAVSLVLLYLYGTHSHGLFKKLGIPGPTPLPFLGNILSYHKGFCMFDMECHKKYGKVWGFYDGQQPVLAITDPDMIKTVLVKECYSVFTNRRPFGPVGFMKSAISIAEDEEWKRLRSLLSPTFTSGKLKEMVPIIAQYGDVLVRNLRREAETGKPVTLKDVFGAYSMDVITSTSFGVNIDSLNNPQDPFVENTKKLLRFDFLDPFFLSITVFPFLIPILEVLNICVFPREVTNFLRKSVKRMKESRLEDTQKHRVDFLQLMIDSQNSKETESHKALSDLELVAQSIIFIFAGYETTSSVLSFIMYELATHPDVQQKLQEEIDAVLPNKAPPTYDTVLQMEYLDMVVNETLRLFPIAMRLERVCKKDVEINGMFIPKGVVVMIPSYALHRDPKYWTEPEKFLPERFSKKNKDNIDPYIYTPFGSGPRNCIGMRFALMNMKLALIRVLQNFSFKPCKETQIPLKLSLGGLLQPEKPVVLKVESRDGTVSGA

Row | SMILES | NRVCM cell viability (MTT) [1] | cardiomyocyte cell death (LIVE/DEAD) [2] | IC50 [3, 6] | also measured
1 | CCCC(=O)OC[C@H]1OC(O)[C@@H](NC(C)=O)[C@@H](OC(=O)CCC)[C@@H]1OC(=O)CCC (some centres unmarked) [3,4,6-O-Bu3ManNAc] | significantly reduced NRVCM cell viability | Significantly higher cell death | 1000 to 100000 nM | fold greater hERG potency versus 3,4,6-O-Bu3GlcNAc ([3]; ManNAc analog versus GlcNAc analog): ~ 13 fold
2 | CCCC(=O)OC1OC(CO)[C@@H](OC(=O)CCC)[C@H](OC(=O)CCC)C1NC(=O)CN=[N+]=[N-] (some centres unmarked) [1,3,4-O-Bu3ManNAz] |  |  |  | lipophilicity rank by experimental CHI score [4]: second highest lipophilicity
3 | CCCC(=O)OC1O[C@H](CO)[C@@H](OC(=O)CCC)[C@H](OC(=O)CCC)[C@H]1NC(=O)CN=[N+]=[N-] (some centres unmarked) [1,3,4-O-Bu3GlcNAz] |  |  |  | IC50 ([3]; read-out: hERG inhibition IC50, fluorescence polarization, doses 69.7 pM to 1 mM): 2850 nM
4 | CCCC(=O)OC[C@H]1OC(O)[C@H](NC(C)=O)[C@@H](OC(=O)CCC)[C@@H]1OC(=O)CCC (some centres unmarked) [3,4,6-O-Bu3GlcNAc] | significantly reduced NRVCM cell viability | Significantly higher cell death | 1000 to 100000 nM | 
5 | CC(=O)N[C@H]1[C@@H](O)[C@H](O)[C@@H](CO)O[C@@H]1O [ManNAc] |  |  |  | effect on CYP3A4 [5]: negligible effect
6 | CCCC(=O)OC1OC(CO)[C@@H](OC(=O)CCC)[C@H](OC(=O)CCC)C1NC(C)=O (some centres unmarked) [1,3,4-O-Bu3GlcNAc] |  |  |  | hERG inhibition (detectable or not) ([3]; up to 1 mM, the highest concentration tested): no detectable inhibition
